Data on 4 molecules can be found in patent publication US12018024B2, “Compounds and compositions for the treatment of cryptosporidiosis” (Novartis AG, priority 2020, dated 2024).

Broadly, the EC50 is the concentration at which the effect is half-maximal. One may read the IC50 as the concentration at which inhibition is half-maximal.

Assay [1] relates to Cryptosporidium hominis. Kind of assay: Cytopathic effect (CPE) based assay, C. hominis-infected HCT-8 cells. The class given is cell-based. As for the experimental part:
(§1) Human ileocecal colorectal adenocarcinoma cells (HCT-8 [HRT-18] ATCC, CCL-34) were maintained in T-175 flasks (Corning, 431080) in complete growth medium (RPMI-1640 medium (Gibco, 11875) supplemented with 10% heat-inactivated horse serum (Gibco, 26050), 1× MEM non-essential amino acids (Gibco, 11140), 10 mM HEPES (Gibco, 15630), 100 units/mL penicillin, and 100 units/mL streptomycin) at 37° C. and 5% CO2 in a humidified incubator. Cultures were passaged twice weekly using 10 mL of 1× Phosphate-Buffered Saline (PBS) without Ca^2+ and Mg^2+ (Gibco, 20012) for washing and 3-5 mL per T-175 flask of TrypLE Express Enzyme (Gibco, 12604) for dissociation of adherent cells.
Cryptosporidium hominis oocysts were purchased from the Tufts University Cummings School of Veterinary Medicine (courtesy of Dr. Saul Tzipori). C. hominis oocysts were purified from infected gnotobiotic piglet feces and stored in PBS solution containing 0.01% Tween-20, 100 units/mL penicillin and 100 units/mL gentamicin. C. parvum and C. hominis oocysts less than three months old from the date of shedding were used in infection experiments.
(§2) Excystaion and infection: Excystation and infection protocols were developed following established methods with some modifications (Gut & Nelson, 1999, Upton et al., 1995, Bessoff et al., 2013). Briefly, oocysts were primed in 1 mL of 10 mM hydrochloric acid in 1× Hank's Balanced Salt Solution (HBSS) (Gibco, 14025) for 10 minutes with agitation at 1000 rpm, 37° C. on an Eppendorf thermomixer, then washed twice with 1 mL of room temperature non-acidic 1× HBSS by centrifugation at 13,000 rpm for 3 minutes at 25° C. Primed oocysts were further excysted at a concentration of 1×10^6 oocysts/μL in parasite infection medium consisting of a pre-warmed and pre-gassed 1:1 formulation of Leibovitz's L-15 medium (Gibco, 11415) and UltraCULTURE medium (Lonza, 12-725F) supplemented with 2 mM sodium taurocholate (Sigma, 86339-1), 10% heat-inactivated horse serum, and 200 μM L-ascorbic acid (Sigma, 95210) at 25° C. for 10 minutes. HCT-8 monolayer cells were infected with excysted cryptosporidium at a specified multiplicity of infection (MOI). All dilutions for subsequent assays were performed in parasite infection medium without sodium taurocholate. Pre-excysted oocysts were enumerated microscopically using a C-Chip disposable hemocytometer (NanoEnTek, DHC-N01).
Compound and assay plate preparation: Compound powders were dissolved in neat DMSO (Fisher, D4121) to 10 mM and stored at 4° C. prior to dilution into source plates. Dilutions were carried out using a Microlab STAR liquid handler (Hamilton) to obtain compound source plates containing the ten-point or eight-point three fold dilutions starting from 10 mM in duplicates. […]
(Damage to the host cells serves as the signal in cytopathic effect assays.)

Assay [2] deals with C. parvum PI(4)K (Cryptosporidium parvum, UniProt Q5CVD3). Kind of assay: CpPI(4)K enzymatic assay (Transcreener ADP2 FP). The class given is biochemical. The text has this:
Baculovirus expression and purification of C. parvum phosphatidylinositol 4-kinase: The full-length coding sequence of C. parvum PI(4)K (cgd8_4500, 1114 amino acids) was codon-optimized for baculovirus expression, synthesized and cloned into pFastBac-HTb (Invitrogen 10584-027) in frame with the amino-terminal polyhistidine tag using the BamHI and HindIII restriction sites. Recombinant pFastBacHTb-CpPI(4)K bacmid clones were generated by site-specific transposition in E. coli DH10Bac (Invitrogen 10361-012). The bacmid sequence was confirmed by direct DNA sequencing to confirm a lack of mutations across the whole gene. The subsequent steps for bacmid isolation, transfection and selection of the recombinant viruses were performed according to the manufacturer's protocol (Bac-to-Bac system #10359, Invitrogen).
SF9 cells, cultured in […] serum-free medium, were transfected with recombinant baculovirus at 1/200 (v/v) and incubated at 27° C. for 72 h. The pellets were collected after centrifugation and re-suspended in cell lysis buffer (20 mM Tris-HCl, pH 7.5, 300 mM NaCl, 1 mM DTT, 20 mM imidazole, 0.01% Triton X-100 and 1× complete protease inhibitor cocktail without EDTA (Roche Diagnostics 04693116001)). The cell suspension was lysed by sonication and the clarified supernatant was loaded onto a 1 ml HisTrap affinity column (GE Healthcare) pre-equilibrated with buffer A (20 mM Tris-HCl, pH 7.5, 300 mM NaCl, 1 mM DTT, 20 mM Imidazole, and 1× complete protease inhibitor cocktail without EDTA). The column was washed with buffer B (buffer A containing 45 mM imidazole) and the bound protein of interest was eluted with buffer C (buffer A with 90 mM imidazole). The fractions containing CpPI(4)K were pooled, concentrated using Amicon Ultra-15 and purified by a gel-filtration column (Hi-Load 26/60 Superdex 200, GE Healthcare) equilibrated with 20 mM Tris, pH 7.5, 300 mM NaCl, 1 mM DTT and 1× protease inhibitor cocktail without EDTA. The concentrations of the purified protein (Mw 132.39 kda) was determined by using the protein molar extinction coefficient (ε280 nm=133,810 M^−1 cm^−1). Aliquots were flash frozen in liquid nitrogen and immediately stored at −80° C.
PI(4)K enzymatic Assay The CpPI(4)K enzymatic assay was performed as described earlier with a some modifications (McNamara et al., 2013). Briefly, L-α-phosphatidylinositol (Avanti Polar Lipid 840046), dissolved in 3% n-octylglucoside (Roche Diagnostics 10634425001), was used as the lipid substrate for the PI(4)K activity assay. CpPI(4)K was assayed using Transcreener ADP2 FP detection kit (BellBrook 3010) in a black, solid 384-well plate (Corning 3575). The final assay volume was 10 μl and contained 3 nM of the respective CpPI(4)K construct in 10 mM Tris, pH 7.5, 1 mM DTT, 3 μM ATP, 5 mM Mn2+, 0.05% Triton X-100 and 10 μM phosphatidylinositol/octylglucoside. The enzyme reaction was performed for 50 minutes at room temperature and was stopped by adding 10 μl of detection mix containing 1× stop buffer (50 mM HEPES, pH7.5, 400 mM NaCl, 20 mM EDTA, and 0.02% Brij-35), 2 nM AMP Alexa Fluor 633 tracer, and 20 μg ml^−1 ADP antibody. Fluorescence polarization measurements were performed on the Infinite M1000 plate reader (Tecan) with λex=635 nm and λem=680 nm (20-nm bandwidth). IC50 values were calculated using Graphpad Prism software.

In assay [3] the test system is Cryptosporidium parvum. Description: Cytopathic effect (CPE) based assay, C. parvum-infected HCT-8 cells. The conditions noted are these: HCT-8, 48 h, read-out: (b) C.p.* CPE EC50 (μM). The class given is cell-based. As for the experimental part:
as §1
Cryptosporidium parvum oocysts purchased from the Sterling Laboratory, University of Arizona (Iowa isolate) were purified from infected calf feces using discontinuous sucrose and cesium chloride centrifugation gradients and stored in PBS solution containing 0.01% Tween 20, 100 units/mL penicillin and 100 units/mL gentamicin.
as §2
Compound and assay plate preparation: Compound powders were dissolved in neat DMSO (Fisher, D4121) to 10 mM and stored at 4° C. prior to dilution into source plates. Dilutions were carried out using a Microlab STAR liquid handler (Hamilton) to obtain compound source plates containing the ten-point or eight-point three fold dilutions starting from 10 mM in duplicates. Source plates were stored at 4° C. prior to spotting into assay plates. Before administration, all compound source plates were equilibrated to room temperature. A specified volume of compounds from source plate were spotted to assay plate using an Echo Acoustic liquid handler (LABCYTE, 550) so that the final DMSO concentration was less than 0.5%. Each assay plate a specified number of DMSO-treated negative control wells and a well-studied potent active compound at 100 nM as positive control. As a quality control, all positive and negative-control wells were used to calculate a Z′-value and signal to noise ratio (S:N) for each plate.
Cryptosporidium spp are obligate-intracellular parasites that infect intestinal epithelial cells and the host cell is killed upon parasite egress. […] The loss of epithelial cells is due to both rapid parasite invasion/multiplication/egress and also pro-inflammatory immune response (Adams et al., 1994, Griffiths et al., 1994). We have observed a consistent cytopathic effect (CPE) in HCT-8 cells with C. spp infection the loss of viability of the host cells using CellTiter-Glo reagent.
Confluent HCT-8 cells in T-175 flasks were directly infected with excysted oocysts at an MOI (host to parasite) of 1:2 for C. parvum and 1:4 for C. hominis. […]

For assay [4], the target named is H.s. PI(4)K (Homo sapiens, UniProt Q9UBF8). Description: H.s. PI(4)K IC50. The class given is biochemical. The conditions noted are these: read-out: (d) H.s.* PI(4)K IC50.
[5] abbreviates: HCT-8 host cells, 48 hours treatment, CellTiter-Glo, read-out: (c) C.h.* CPE EC50.

Where two headings read alike, the source gives them in different places. Bounds are passed on as bounds.

C. parvum PI(4)K, sequence (Q5CVD3 entry or part of it): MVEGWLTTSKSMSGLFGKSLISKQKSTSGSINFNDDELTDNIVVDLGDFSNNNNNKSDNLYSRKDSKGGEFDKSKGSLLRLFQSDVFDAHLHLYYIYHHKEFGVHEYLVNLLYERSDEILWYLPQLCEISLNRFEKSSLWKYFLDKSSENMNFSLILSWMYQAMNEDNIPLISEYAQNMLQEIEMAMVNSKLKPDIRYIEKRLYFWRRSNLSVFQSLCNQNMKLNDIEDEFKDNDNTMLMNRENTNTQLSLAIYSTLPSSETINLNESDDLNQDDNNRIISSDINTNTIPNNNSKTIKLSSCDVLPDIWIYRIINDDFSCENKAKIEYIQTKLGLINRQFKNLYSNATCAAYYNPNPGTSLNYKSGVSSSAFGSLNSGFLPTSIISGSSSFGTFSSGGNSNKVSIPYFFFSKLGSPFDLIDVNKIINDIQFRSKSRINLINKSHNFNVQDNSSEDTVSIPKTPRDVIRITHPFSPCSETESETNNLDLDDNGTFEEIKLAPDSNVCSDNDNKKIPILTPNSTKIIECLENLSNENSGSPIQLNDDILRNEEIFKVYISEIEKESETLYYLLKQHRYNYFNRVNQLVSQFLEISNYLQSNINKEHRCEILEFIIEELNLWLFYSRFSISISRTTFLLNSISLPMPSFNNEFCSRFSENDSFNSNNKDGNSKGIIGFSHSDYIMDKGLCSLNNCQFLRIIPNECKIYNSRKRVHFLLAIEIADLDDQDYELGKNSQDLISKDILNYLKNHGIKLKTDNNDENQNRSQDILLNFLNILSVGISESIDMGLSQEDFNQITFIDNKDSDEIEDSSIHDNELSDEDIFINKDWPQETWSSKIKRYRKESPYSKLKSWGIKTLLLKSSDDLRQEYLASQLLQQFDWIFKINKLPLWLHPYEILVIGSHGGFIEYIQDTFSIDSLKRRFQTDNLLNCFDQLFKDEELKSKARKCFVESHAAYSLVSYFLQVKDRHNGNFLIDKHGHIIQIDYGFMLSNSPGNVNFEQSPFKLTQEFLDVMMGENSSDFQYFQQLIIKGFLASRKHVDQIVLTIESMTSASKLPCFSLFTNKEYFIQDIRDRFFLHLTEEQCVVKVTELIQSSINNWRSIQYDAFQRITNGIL
H.s. PI(4)K, sequence (Q9UBF8 2-816 limits assumed): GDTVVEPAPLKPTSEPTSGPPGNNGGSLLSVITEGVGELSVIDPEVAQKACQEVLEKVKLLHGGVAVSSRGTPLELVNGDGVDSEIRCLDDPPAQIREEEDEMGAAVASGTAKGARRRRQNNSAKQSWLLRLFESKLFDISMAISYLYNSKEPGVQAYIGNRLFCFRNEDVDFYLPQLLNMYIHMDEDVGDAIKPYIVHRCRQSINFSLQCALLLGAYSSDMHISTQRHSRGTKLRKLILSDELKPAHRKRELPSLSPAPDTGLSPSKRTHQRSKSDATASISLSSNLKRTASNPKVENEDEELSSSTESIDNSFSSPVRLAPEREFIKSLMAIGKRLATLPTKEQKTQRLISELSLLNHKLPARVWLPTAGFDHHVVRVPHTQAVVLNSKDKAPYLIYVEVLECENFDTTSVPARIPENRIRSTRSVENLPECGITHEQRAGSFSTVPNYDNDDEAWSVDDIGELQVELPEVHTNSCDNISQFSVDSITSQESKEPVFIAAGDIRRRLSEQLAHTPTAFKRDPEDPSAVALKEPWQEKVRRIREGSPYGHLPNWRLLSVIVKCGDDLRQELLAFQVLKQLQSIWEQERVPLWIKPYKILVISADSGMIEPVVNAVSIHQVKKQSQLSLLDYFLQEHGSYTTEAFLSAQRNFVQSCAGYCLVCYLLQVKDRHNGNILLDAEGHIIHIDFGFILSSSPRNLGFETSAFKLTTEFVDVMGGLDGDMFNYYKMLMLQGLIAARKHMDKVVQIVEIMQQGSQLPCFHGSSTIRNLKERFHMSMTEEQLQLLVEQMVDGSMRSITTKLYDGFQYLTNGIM

`CNC(=O)c1ccc(-c2cnn3ccc(C(=O)N(C)c4ccc(Cl)c(C(=O)OC)c4)cc23)cc1` [Example 1.16, Methyl 2-chloro-5-(N-methyl-3-(4-(methylcarbamoyl)phenyl)pyrazolo[1,5-a]pyridine-5-carboxamido)benzoate]: the EC50 was under 0.1 µM in assay [1] (HCT-8, 48 h, read-out: (c) C.h.* CPE EC50 (μM)) and under 0.1 µM in assay [3]. Besides, the half-inhibitory concentration (IC50) in assay [2] was under 100 nM; in assay [4], 100 to 1000 nM.
Regarding `COC(=O)c1cc(Cl)ccc1N(C)C(=O)c1ccn2ncc(-c3ccc(C(N)=O)cc3)c2c1` [Example 4.1, Methyl 2-(3-(4-carbamoylphenyl)-N-methylpyrazolo[1,5-a]pyridine-5-carboxamido)-5-chlorobenzoate], the EC50 in assay [1] (setting [5]) and in assay [3] was under 0.1 µM throughout. Moreover, the IC50 in assay [2] is under 100 nM; in assay [4], 100 to 1000 nM.
Turning to `CNC(=O)c1ccc(-c2cnn3cnc(C(=O)N(C)c4ccc(Cl)c(C(=O)OC)c4)cc23)cc1` [Example 3.1, Methyl 2-chloro-5-(N-methyl-3-(4-(methylcarbamoyl)phenyl)pyrazolo[1,5-c]pyrimidine-5-carboxamido)benzoate], the EC50 in assay [1] (setting [5]) and in assay [3] was 0.1 to 1 µM throughout. The IC50 is under 100 nM in assay [2] and over 1000 nM in assay [4].
As to `COC(=O)c1cc(N(C)C(=O)c2ccn3ncc(-c4ccc(C(N)=O)cc4)c3c2)ccc1Cl` [Example 1.01, Methyl 5-(3-(4-carbamoylphenyl)-N-methylpyrazolo[1,5-a]pyridine-5-carboxamido)-2-chlorobenzoate], the EC50 in assay [1] (setting [5]) and in assay [3] was under 0.1 µM each time. Further, the 50% inhibitory concentration (IC50) was under 100 nM in assay [2] and 100 to 1000 nM in assay [4].
